The source of these data is paper PMC12568586, “Mass spectrometry-guided discovery of novel GCPII inhibitor scaffolds” (Frontiers in Pharmacology, 2025).

In data set [1] the target is T1, recombinant human (rh) GCPII (Homo sapiens, UniProt Q04609).
T1 construct: purchased Sino Biological
The data set is described as follows: nanoDSF thermal shift assay. In kind it is binding. As to conditions: for Tm of GCPII in the presence of compound: compound at 250 μM, DMSO Tm 78.93 °C; for shift in Tm (Δ): compound at 25 μM, vs DMSO. The method, then: nanoDSF experiments were performed to assess the thermal stability of GCPII in the presence of various inhibitors. Protein samples were prepared at a concentration of 0.15 mg/mL in 50 mM Tris-HCl (pH 7.4), 1 mM CoCl2, 150 mM NaCl, and 0.01% Tween-20. Samples were incubated at 25 °C for 30 min prior to measurement with shaking at 1,000 rpm. Thermal unfolding was monitored using a Prometheus Panta nanoDSF instrument using standard capillaries (NanoTemper Technologies). The intrinsic fluorescence at 350 nm and 330 nm was recorded as a function of temperature, and the fluorescence ratio (350/330 nm) and its first derivative were used to track protein unfolding. A thermal gradient from 25 °C to 95 °C was applied at a rate of 0.5 °C per minute. The melting temperature (Tm) was determined from the global maximum of the first derivative of the fluorescence ratio curve. Each condition was tested in at least three independent replicates, and data was analyzed using PR. ThermControl software (NanoTemper Technologies). One-way ANOVA with multiple comparisons to the DMSO vehicle control group was used to determine significant shifts from the control thermal unfolding profile.

The subject of data set [2] is GCPII. As to conditions: prior art compound, value given when selected for assay validation; no reference given; cited from earlier work.
Data set [3] deals with T2, GCPII (Homo sapiens, UniProt Q04609). The data set is described as follows: dual-stream LC/MS/MS GCPII substrate cleavage (inhibition) assay. The format is biochemical. Further details: purchased Sino Biological. To be noted: for Max resp (100uM) / HTS max resp: in % (unit assumed); for inhibition at 10 µM: read-out: inhibition relative to the DMSO and no enzyme controls; for IC50: follow up screening, triplicate IC50 values ± standard deviation, read-out: IC50 (mass spec assay). As to the method: The novel high-throughput dual-stream liquid chromatography–tandem mass spectrometry method used to screen for this study was recently published ([Hoxie et al., 2024]). Briefly, a 5 μL solution containing recombinant GCPII (SinoBio) in Tris–HCl (pH 7.4) with 1 mM CoCl2 was dispensed using a BioRAPTR 2.0 Flying Reagent Dispenser (Let’s Go Robotics) into 384-well assay plates (Greiner 784,201) pre-spotted with 100 nL of compound in DMSO using an Echo 655 Acoustic Liquid Handler (Beckman). Enzyme and compound were incubated for 15 min prior to the addition of 5 μL of ^13C5 ^15N-acetylaspartylglutamate (Aldrich). After 30 min s at room temperature, reactions were quenched using 0.2 μM D3-glutamate in LC/MS-grade acetonitrile and 0.1% formic acid. A 2-min liquid chromatography method utilizing a 2.1 × 30 mm BEH Amide HILIC column (Waters) was used to resolve glutamate from NAA and NAAG. A Sciex 6,500+ Q-Trap mass spectrometer was utilized for MS/MS quantification of released glutamate in the presence of compound. The integrated peak areas were normalized against the d3-glutamate internal standard, and then degree of inhibition was calculated using replicates containing no enzyme and enzyme with equivalent volumes of DMSO. Compounds were initially screened in a 10 μL reaction volume with 10 μM (final) compound dissolved in DMSO. […] To further increase throughput and the efficiency of screening, LC/MS analysis of libraries was conducted in dual-stream mode on an LS-1 autosampler (Sound Analytics).

Another data set concerns the target T3, human rGCPII (Homo sapiens, UniProt Q04609).
T3 construct: purchased Sino Biological
The experiment in a line: orthogonal radioenzymatic GCPII inhibition assay (3H-NAAG). The format is biochemical. To be noted: NAA[3H]G 30 nM, GCPII 40 pM, 37 °C, 25 min. The method, then:
Radioenzymatic assay using ^3H-NAAG was performed as previously described ([Barinka et al., 2002]). Briefly, a 50 μL reaction mixture containing NAA [^3H]G (30 nM, 49 μCi/nmol) and GCPII (40 pM), in Tris-HCl (pH 7.4, 40 mM) with 1 mM CoCl2 was incubated at 37 °C for 25 min and stopped with 50 μL ice-cold sodium phosphate buffer (pH 7.5, 0.1 M). AG1X8 ion-exchange resin was used to separate cleaved [^3H]glutamate, and the flowthrough was transferred to solid scintillator-coated 96-well plates (Packard) and allowed to dry. Radioactivity was measured by a Topcount NXT from Packard. Each compound was run in duplicate, and 6–8-point dose-response curves were generated.

Data set [4] can be described thus: pharmacokinetic and brain penetration study in mice. The format is in vivo. To be noted: 100 mg/kg IP, C57BL/6 mice. As to the method: Pharmacokinetic studies in mice were approved by the Animal Care and Use Committee at Johns Hopkins University. Male C57BL/6 mice (25–30 g) were housed under a 12-h light-dark cycle with ad libitum access to food and water. Cefsulodin was administered intraperitoneally (IP) at a dosage of 100 mg/kg prepared freshly (5% DMSO and 95% HEPES saline v/v) with a dosing volume of 10 mL/kg. Blood and brain tissue samples were collected at 0.083–3 h post-administration (n = 3 per time point). Blood was obtained via cardiac puncture, and plasma was separated by low-speed centrifugation at 3,000 × g for 15 min and stored at −80 °C. Brain tissues were harvested, and immediately frozen in liquid nitrogen, and stored at −80 °C until analyses.
As cefsulodin is known to be unstable, plasma and brain tissue samples were prepared with the addition of 2% formic acid in water to adjust the pH to 5 ([Lecaillon et al., 1982]). For quantification of cefsulodin, plasma samples were diluted 10-fold with blank plasma, and a total of 40 μL of plasma was extracted using a protein precipitation method by adding methanol containing the internal standard (diclofenac, 1 μM). The mixture was vortex-mixed for 30 s and centrifuged at 14,000 rpm for 5 min at 4 °C. Brain tissues were homogenized in methanol at a 1:5 (w/v) ratio. A 50 μL aliquot of the homogenate was precipitated with methanol containing the internal standard, vortex-mixed, and centrifuged at 14,000 rpm for 5 min at 4 °C. A 150 μL aliquot of the supernatant was transferred to a polypropylene vial sealed with a Teflon cap and analyzed by liquid chromatography with tandem mass spectrometric methods (LC-MS/MS) as described below.
Cefsulodin concentrations in mouse plasma and brain were measured using a Shimadzu Nexera X2 LC-40D system (Shimadzu Corporation, Kyoto, Japan) coupled with an API 6500 triple quadrupole mass spectrometer (AB Sciex, Redwood City, CA, United States). […] Quantitation was performed in multiple reaction monitoring (MRM) mode using cefsulodin (533.03 > 123.03) and diclofenac as the internal standard (296.13 > 215.03) ([Zhou et al., 2024]; [Park et al., 2024]). Calibration curves were constructed over the range of 0.01–100 nmol/mL or nmol/g for plasma and brain, respectively.
Plasma concentrations (nmol/mL) and brain concentrations (nmol/g) were determined, and mean concentration-time profiles were plotted for pharmacokinetic analysis. Non-compartmental analysis was performed using the Phoenix WinNonlin software version 8.4 (Certara United States, Inc., Princeton, NJ) to calculate pharmacokinetic parameters, including the maximum concentration (Cmax), time to Cmax (Tmax), and area under the concentration-time curve (AUC0–t).

The target in data set [5] is T2, GCPII. The experiment in a line: mode of inhibition study (radioenzymatic assay, varied NAA[3H]G, Michaelis-Menten analysis). As to conditions: for Ki: Ki (secondary plot Km app/Vmax vs [inhibitor], −X intercept), 40 pM GCPII; for mode of inhibition: NAAG as substrate.
Description: The mode of inhibition was also determined as previously described following the same procedure as the radioenzymatic-based IC50 assay but with modification of the concentrations of NAA [^3H]G. ([Barinka et al., 2002]). […] A Michaelis-Menten kinetics analysis was done to determine the Km and Vmax at each inhibitor concentration.
[6] abbreviates: maximum response at 100uM, dose response.
Where [7] appears, read: library screening, seven-point dose response, read-out: AC50.

What is called IC50 is the point on the concentration scale where inhibition reaches its midpoint. By inhibition is commonly meant the percentage by which the read-out fell short of the control. Usually AC50 stands for the midpoint of the concentration-response curve, whichever way the signal moves.

Several values for one entry are separate records, joined by “and”; a condition that tells them apart may be missing. Identical values can stand only once. Like-named read-outs stand apart in the source and are kept apart here.

T2 sequence (Q04609 whole entry): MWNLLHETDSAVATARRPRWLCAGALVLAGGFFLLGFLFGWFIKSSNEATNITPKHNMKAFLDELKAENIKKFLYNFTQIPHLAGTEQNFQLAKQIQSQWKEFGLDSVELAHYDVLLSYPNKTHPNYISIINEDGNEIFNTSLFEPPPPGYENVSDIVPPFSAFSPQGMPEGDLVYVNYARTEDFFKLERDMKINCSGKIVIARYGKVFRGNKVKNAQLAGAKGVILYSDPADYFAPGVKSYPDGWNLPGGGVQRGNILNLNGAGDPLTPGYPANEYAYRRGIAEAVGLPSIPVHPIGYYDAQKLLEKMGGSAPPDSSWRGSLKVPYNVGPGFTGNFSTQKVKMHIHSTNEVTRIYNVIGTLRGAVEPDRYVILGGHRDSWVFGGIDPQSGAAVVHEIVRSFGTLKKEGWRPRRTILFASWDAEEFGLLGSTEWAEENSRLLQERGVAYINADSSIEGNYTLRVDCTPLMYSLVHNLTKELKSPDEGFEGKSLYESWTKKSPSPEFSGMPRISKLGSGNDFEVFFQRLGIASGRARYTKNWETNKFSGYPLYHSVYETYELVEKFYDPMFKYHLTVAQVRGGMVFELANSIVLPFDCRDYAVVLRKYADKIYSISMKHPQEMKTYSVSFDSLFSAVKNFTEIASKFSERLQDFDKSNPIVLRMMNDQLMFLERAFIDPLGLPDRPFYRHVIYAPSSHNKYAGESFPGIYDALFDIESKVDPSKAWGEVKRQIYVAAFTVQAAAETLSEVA
T1 sequence (Q04609 whole entry): as above
T3 sequence (Q04609 whole entry): as above

Consider `O=C(O)CCC(CCCS)C(=O)O` (stereo not shown) [2-MPPA, 2-(3-mercaptopropyl)pentanedioic acid], for which, in data set [1], the “Tm of GCPII in the presence of compound” value stood at 79.25 °C. For the same molecule, the IC50 in the data set with GCPII [2] was 90 nM. Further, the “Max resp (100uM)” value on GCPII [3] (setting [6]) is recorded as −96.75. This molecule also yielded an HTS max resp on GCPII [3] (primary high-throughput screen) of −100.00. The inhibition at 10 µM at GCPII [3] (single point screen at 10 µM) was no less than 50%.

With `O=C(O)C1=C(CSc2nnnn2CS(=O)(=O)O)CS[C@@H]2[C@H](NC(=O)[C@H](O)c3ccccc3)C(=O)N12` [Cefonicid sodium], the IC50 at human rGCPII turned out to be 4900 ± 2000 nM; at GCPII [3], 32000 ± 2000 nM.

`NCc1ccccc1CC(=O)N[C@@H]1C(=O)N2C(C(=O)O)=C(CSc3nnnn3CC(=O)O)CS[C@H]12` [Ceforanide]: the results for the IC50 at human rGCPII and at GCPII [3] were 14000 ± 6000 nM and 29000 ± 400 nM, respectively.

As to `Nc1nc(=O)c2nc(CNc3ccc(C(=O)N[C@@H](CCC(=O)O)C(=O)O)cc3)cnc2[nH]1` [Folic Acid], the inhibition at 10 µM on GCPII [3] (single point screen at 10 µM) was no less than 50%.

In turn, `NC(=O)c1cc[n+](CC2=C(C(=O)O)N3C(=O)[C@@H](NC(=O)[C@@H](c4ccccc4)S(=O)(=O)[O-])[C@H]3SC2)cc1` [Cefsulodin] displayed an IC50 against human rGCPII of 2000 ± 100 nM. The “shift in Tm (Δ)” value in data set [1] is 0.65 (±0.07) °C. In data set [4], the brain penetration index result is recorded as “low”. In addition, in data set [4] (brain), the “brain Cmax” value was 4 µM and 4.9 µM; the “brain exposure (AUC)” value is 4.36 ± 1.12 nmol·h/g. Moreover, the “time of brain Cmax” value in data set [4] (brain, post-dose) is listed as 30 min. Also, on GCPII [3], the IC50 amounted to 3600 ± 300 nM. Besides, the AC50 at GCPII [3] (setting [7]) was found to be 3900 nM. Moreover, the “Max resp (100uM)” value on GCPII [3] (setting [6]) is −98.19. At GCPII [3] (primary high-throughput screen), this molecule yielded an HTS max resp of −92.18. For the same molecule, on GCPII [5], the Ki was 2500 nM and 2000 nM; the mode of inhibition result was “competitive, active-site inhibition”.

For the molecule `N[C@@H](Cn1oc(=O)[nH]c1=O)C(=O)O` [L-Quisqualic acid], in the data set on GCPII [2], the IC50 is 10000 nM. At GCPII [3], half-maximal activity (AC50) was put at 7900 nM, the HTS max resp was −93.07, the “Max resp (100uM)” value is −91.35 and the inhibition at 10 µM is no less than 50%.

With `CN(Cc1cnc2nc(N)nc(N)c2n1)c1ccc(C(=O)N[C@@H](CCC(=O)O)C(=O)O)cc1` [Methotrexate], the inhibition at 10 µM at GCPII [3] (single point screen at 10 µM) was no less than 50%.

For `O=C(O)CCC(CP(=O)(O)O)C(=O)O` (stereo not shown) [2-PMPA, 2-(phosphonomethyl)pentanedioic acid], the “Tm of GCPII in the presence of compound” value in data set [1] is 90.70 °C. Besides, the half-maximal inhibitory concentration (IC50) in the data set with GCPII [2] is […]. Besides, on GCPII [3] (setting [6]), the “Max resp (100uM)” value is reported as −98.19. This molecule registered an HTS max resp at GCPII [3] (primary high-throughput screen) of −100.00. Besides, at GCPII [3] (single point screen at 10 µM), the inhibition at 10 µM was no less than 50%.

Turning to `O=C1OC(c2ccc(O)c(S(=O)(=O)O)c2)(c2ccc(O)c(S(=O)(=O)O)c2)c2c(Br)c(Br)c(Br)c(Br)c21` [Sulfobromophthalein], the IC50 against human rGCPII came out at 230 ± 100 nM; on GCPII [3], 400 ± 100 nM.

Take `CO[C@@]1(NC(=O)C2SC(=C(C(N)=O)C(=O)O)S2)C(=O)N2C(C(=O)O)=C(CSc3nnnn3C)CS[C@@H]21` (stereo partly shown) [Cefotetan]: the IC50 against human rGCPII came out at 2000 ± 1000 nM; at GCPII [3] it was 9700 ± 3000 nM.

For `Cc1cc(-c2ccc(/N=N/c3c(S(=O)(=O)O)cc4cc(S(=O)(=O)O)cc(N)c4c3O)c(C)c2)ccc1/N=N/c1c(S(=O)(=O)O)cc2cc(S(=O)(=O)O)cc(N)c2c1O` [Trypan blue], the IC50 on human rGCPII was found to be 210 ± 50 nM; on GCPII [3], 2100 ± 400 nM.

Take `CC1(C)C(/C=C/C=C/C=C/C=C2\N(CCCCS(=O)(=O)O)c3ccc4ccccc4c3C2(C)C)=[N+](CCCCS(=O)(=O)[O-])c2ccc3ccccc3c21` [Indocyanine green]: the IC50 on human rGCPII is 1900 ± 300 nM; on GCPII [3], 11000 ± 200 nM.

Regarding `O=S(=O)(O)c1ccc2c(/N=N/c3ccc(S(=O)(=O)O)c4ccccc34)c(O)c(S(=O)(=O)O)cc2c1` [Amaranth], 300 ± 10 nM corresponded to half-maximal inhibition at human rGCPII (IC50). The “shift in Tm (Δ)” value in data set [1] worked out at 0.76 °C. Moreover, the IC50 on GCPII [3] is 1500 ± 300 nM. At GCPII [3] (setting [7]), the AC50 turned out to be 2500 nM. The “Max resp (100uM)” value on GCPII [3] (setting [6]) is −101.68. For the same molecule, the HTS max resp at GCPII [3] (primary high-throughput screen) was −101.93. For the same molecule, at GCPII [5], the Ki stood at 1100 ± 60 nM and the mode of inhibition result is reported as “non-competitive inhibition”.
